# Source: ChEMBL document CHEMBL6134830, “Naturally inspired chimeric quinolone derivatives to reverse bacterial drug resistance” (Eur J Med Chem, 2025)
# Numbered stars: 1 amine (or outer) side, 2 acyl side, 3 side chain; on linkers, the order of the positions; unused ones are H or OH. Bridge positions count the residues as written; N and C are the ends. Square brackets hold non-standard residues; d marks the D form. Peptide text beside a SMILES is read from it. * marks the point of attachment. X1 = O=C(O)c1cn(C2CC2)c2cc(N3CCN(*)CC3)c(F)cc2c1=O; NH(CH2)11CH3 = CCCCCCCCCCCCN*; Suc = O=C(CCC(=O)[*:2])[*:1]; X2 = CC[C@H](C)CCCCC(=O)*; dDab = NCC[C@@H](N)C(=O)O; Dab = NCC[C@H](N)C(=O)O
# What was measured:
# Staphylococcus aureus [1] = assay: Antimicrobial activity against Staphylococcus aureus ATCC 25923 assessed as inhibition of bacterial growth measured after 20 hrs by CLSI protocol based Muller Hinton broth assay; format: functional
# Enterococcus gallinarum = assay: Antimicrobial activity against Enterococcus gallinarum ATCC 49573 assessed as inhibition of bacterial growth measured after 20 hrs by CLSI protocol based Muller Hinton broth assay; format: functional
# Staphylococcus aureus [2] = assay: Antimicrobial activity against Methicillin-resistant Staphylococcus aureus ATCC 43300 assessed as inhibition of bacterial growth measured after 20 hrs by CLSI protocol based Muller Hinton broth assay; format: functional
# Enterococcus faecalis = assay: Antimicrobial activity against Enterococcus faecalis ATCC 19433 assessed as inhibition of bacterial growth measured after 20 hrs by CLSI protocol based Muller Hinton broth assay; format: functional
# Escherichia coli = assay: Antimicrobial activity against Escherichia coli ATCC 25922 assessed as inhibition of bacterial growth measured after 20 hrs by CLSI protocol based Muller Hinton broth assay; format: functional
# Pseudomonas aeruginosa = assay: Antimicrobial activity against Pseudomonas aeruginosa ATCC 27853 assessed as inhibition of bacterial growth measured after 20 hrs by CLSI protocol based Muller Hinton broth assay; format: functional
# Acinetobacter baumannii = assay: Antimicrobial activity against Acinetobacter baumannii ATCC 19606 assessed as inhibition of bacterial growth measured after 20 hrs by CLSI protocol based Muller Hinton broth assay; format: functional
# [3] = Hemolytic activity in Sprague-Dawley rat Red blood cells at 100 ug/ml incubated for 1 hrs by absorbance based analysis; format: toxicity, cell-based; settings: erythrocyte, dose 100 µg/ml
# L929 = assay: Cytotoxicity against mouse L929 cells assessed as reduction in cell viability at 25 microg/mL incubated for 24 hrs by MTT assay; format: toxicity, cell-based; settings: l929, 24 h, dose 25 µg/ml
# [4] = Hemolytic activity in Sprague-Dawley rat Red blood cells at 200 ug/ml incubated for 1 hr by absorbance based analysis; format: toxicity, cell-based; settings: erythrocyte, dose 200 µg/ml
# Cell membrane = assay: Disruption of cell membrane in methicillin-resistant Staphylococcus aureus assessed as PI-positive bacteria at 8 times MIC measured after 30 mins by PI staining based flow cytometry analysis (reference value: 7.49 %); format: subcellular
smiles,measurement,setting,value
CCCCCCCCCCCCNC(=O)[C@H](CCCCN)NC(=O)[C@H](CCCCN)NC(=O)[C@H](CCCCN)NC(=O)CCNC(=O)CCC(=O)N1CCN(c2cc3c(cc2F)c(=O)c(C(=O)O)cn3C2CC2)CC1,MIC,Staphylococcus aureus [1],> 50 µg/mL
CCCCCCCCCCCCNC(=O)[C@H](CCCCN)NC(=O)[C@H](CCCCN)NC(=O)[C@H](CCCCN)NC(=O)[C@H](CO)NC(=O)CCC(=O)N1CCN(c2cc3c(cc2F)c(=O)c(C(=O)O)cn3C2CC2)CC1 ({X1-Suc}-SKKK-{NH(CH2)11CH3}),MIC,Staphylococcus aureus [1],6.25 µg/mL
same,MIC,Enterococcus gallinarum,25 µg/mL
same,MIC,Staphylococcus aureus [2],12.5 µg/mL
same,MIC,Enterococcus faecalis,25 µg/mL
same,MIC,Escherichia coli,25 µg/mL
same,MIC,Pseudomonas aeruginosa,50 µg/mL
same,MIC,Acinetobacter baumannii,12.5 µg/mL
same,Activity,[3],Toxic
same,Activity,L929,Toxic
NCCCC[C@H](NC(=O)c1ccc(C(=O)N2CCN(c3cc4c(cc3F)c(=O)c(C(=O)O)cn4C3CC3)CC2)cc1)C(=O)NCc1ccc(-c2ccccc2)cc1,MIC,Staphylococcus aureus [1],50 µg/mL
NCCCC[C@H](NC(=O)c1ccc(C(=O)N2CCN(c3cc4c(cc3F)c(=O)c(C(=O)O)cn4C3CC3)CC2)cc1)C(=O)N[C@@H](CCCCN)C(=O)N[C@@H](CCCCN)C(=O)NCc1ccc(-c2ccccc2)cc1,MIC,Staphylococcus aureus [1],1.56 µg/mL
same,MIC,Enterococcus gallinarum,50 µg/mL
same,MIC,Staphylococcus aureus [2],6.25 µg/mL
same,MIC,Enterococcus faecalis,50 µg/mL
same,MIC,Escherichia coli,25 µg/mL
same,MIC,Pseudomonas aeruginosa,25 µg/mL
same,MIC,Acinetobacter baumannii,25 µg/mL
same,Activity,[4],Non-toxic
CCCCCCCCCCCCNC(=O)[C@H](CCCCN)NC(=O)[C@H](CCCCN)NC(=O)[C@H](CCCCN)NC(=O)COCCOCCNC(=O)CCC(=O)N1CCN(c2cc3c(cc2F)c(=O)c(C(=O)O)cn3C2CC2)CC1,MIC,Staphylococcus aureus [1],12.5 µg/mL
CCCCCCCCCCCCNC(=O)[C@H](CCCCN)NC(=O)c1ccc(C(=O)N2CCN(c3cc4c(cc3F)c(=O)c(C(=O)O)cn4C3CC3)CC2)cc1,MIC,Staphylococcus aureus [1],50 µg/mL
CCCCCCCCCCCCNC(=O)[C@H](CCCCN)NC(=O)[C@H](CCCCN)NC(=O)[C@H](CCCCN)NC(=O)CCC(=O)N1CCN(c2cc3c(cc2F)c(=O)c(C(=O)O)cn3C2CC2)CC1,MIC,Staphylococcus aureus [1],> 50 µg/mL
O=C(Cc1ccc(-c2ccccc2)cc1)N[C@@H](Cc1c[nH]cn1)C(=O)N1CCN(c2cc3c(cc2F)c(=O)c(C(=O)O)cn3C2CC2)CC1,MIC,Staphylococcus aureus [1],6.25 µg/mL
CCCCCCCCCNC(=O)[C@H](CCCCN)NC(=O)[C@H](CCCCN)NC(=O)[C@H](CCCCN)NC(=O)c1ccc(C(=O)N2CCN(c3cc4c(cc3F)c(=O)c(C(=O)O)cn4C3CC3)CC2)cc1,MIC,Staphylococcus aureus [1],3.12 µg/mL
CCCCCCCCCNC(=O)[C@H](CCCCN)NC(=O)[C@H](CCCCN)NC(=O)[C@H](CCCNC(=N)N)NC(=O)c1ccc(C(=O)N2CCN(c3cc4c(cc3F)c(=O)c(C(=O)O)cn4C3CC3)CC2)cc1,MIC,Staphylococcus aureus [1],3.12 µg/mL
CCCCCCCCCNC(=O)[C@H](Cc1c[nH]cn1)NC(=O)[C@H](CCCCN)NC(=O)[C@H](CCCCN)NC(=O)c1ccc(C(=O)N2CCN(c3cc4c(cc3F)c(=O)c(C(=O)O)cn4C3CC3)CC2)cc1,MIC,Staphylococcus aureus [1],6.25 µg/mL
CCCCCCCCNC(=O)[C@H](CCCCN)NC(=O)c1ccc(C(=O)N2CCN(c3cc4c(cc3F)c(=O)c(C(=O)O)cn4C3CC3)CC2)cc1,MIC,Staphylococcus aureus [1],12.5 µg/mL
NCCCC[C@H](NC(=O)c1ccc(C(=O)N2CCN(c3cc4c(cc3F)c(=O)c(C(=O)O)cn4C3CC3)CC2)cc1)C(=O)NCc1c(F)cccc1Cl,MIC,Staphylococcus aureus [1],25 µg/mL
N=C(N)NCCC[C@H](N)C(=O)N1CCN(c2cc3c(cc2F)c(=O)c(C(=O)O)cn3C2CC2)CC1,MIC,Staphylococcus aureus [1],≥ 12.5 µg/mL
CC(C)CCCCC(=O)N[C@@H](CCN)C(=O)N[C@H](C(=O)N[C@@H](CCN)C(=O)N[C@H]1CCNC(=O)[C@H]([C@@H](C)O)NC(=O)[C@H](CCN)NC(=O)[C@H](CCN)NC(=O)[C@H](CC(C)C)NC(=O)[C@@H](Cc2ccccc2)NC(=O)[C@@H](CCN)NC1=O)[C@@H](C)O.CC[C@H](C)CCCCC(=O)N[C@@H](CCN)C(=O)N[C@H](C(=O)N[C@@H](CCN)C(=O)N[C@H]1CCNC(=O)[C@H]([C@@H](C)O)NC(=O)[C@H](CCN)NC(=O)[C@H](CCN)NC(=O)[C@H](CC(C)C)NC(=O)[C@@H](Cc2ccccc2)NC(=O)[C@@H](CCN)NC1=O)[C@@H](C)O (X2-[Dab]T[Dab][Dab][dDab][dF]L[Dab][Dab]T; lactam 4-C),Activity,Cell membrane,57.2%
CCCCCCCCCCCCNC(=O)[C@H](CCCCN)NC(=O)[C@H](CCCCN)NC(=O)[C@H](CCCCN)NC(=O)CCNC(=O)CCNC(=O)CCC(=O)N1CCN(c2cc3c(cc2F)c(=O)c(C(=O)O)cn3C2CC2)CC1,MIC,Staphylococcus aureus [1],6.25 µg/mL
CCCCCCCCCCCCNC(=O)[C@H](CCCCN)NC(=O)[C@H](CCCCN)NC(=O)[C@H](CCCCN)NC(=O)CCCCCCNC(=O)CCC(=O)N1CCN(c2cc3c(cc2F)c(=O)c(C(=O)O)cn3C2CC2)CC1,MIC,Staphylococcus aureus [1],12.5 µg/mL
NCCCC[C@H](N)C(=O)N1CCN(c2cc3c(cc2F)c(=O)c(C(=O)O)cn3C2CC2)CC1,MIC,Staphylococcus aureus [1],≥ 12.5 µg/mL
CCCCCCCCCCCCNC(=O)[C@H](CCCCN)NC(=O)[C@H](CCCCN)NC(=O)[C@H](CCCCN)NC(=O)CCCCCCCCCCCNC(=O)CCC(=O)N1CCN(c2cc3c(cc2F)c(=O)c(C(=O)O)cn3C2CC2)CC1,MIC,Staphylococcus aureus [1],3.12 µg/mL
same,MIC,Enterococcus gallinarum,6.25 µg/mL
same,MIC,Staphylococcus aureus [2],6.25 µg/mL
same,MIC,Enterococcus faecalis,12.5 µg/mL
same,MIC,Escherichia coli,12.5 µg/mL
same,MIC,Pseudomonas aeruginosa,6.25 µg/mL
same,MIC,Acinetobacter baumannii,6.25 µg/mL
same,Activity,[3],Toxic
same,Activity,L929,Toxic
CCCCCCCCCCNC(=O)[C@H](CCCCN)NC(=O)[C@H](CCCCN)NC(=O)c1ccc(C(=O)N2CCN(c3cc4c(cc3F)c(=O)c(C(=O)O)cn4C3CC3)CC2)cc1,MIC,Staphylococcus aureus [1],6.25 µg/mL
